# From publication PMC7497692 (Investigational New Drugs, 2020)
# “And” between values parts separate entries of the source, which are not always exact repeats. Equal entries are not always repeated. Where two headings read alike, the source gives them in different places.
# What was measured:
# [1] = Mass balance: excretion of radioactivity in urine and feces after oral [14C]-tepotinib (part A); assay type: in vivo, human healthy male volunteers
# Description: (§1) Participants were hospitalized from day 1 to day 16 of the study, and further assessed on days 19, 22, and 25 (trial end). […] Pre-dose feces and urine samples were collected on day 1 and day 2, respectively. Urine was collected at 4- to 12-h intervals on day 1 and every 24 h thereafter up to day 16. Feces were collected every 24 h up to day 16. Provision was made to collect further samples up to day 39 if >1% of the administered dose was detectable in the total (urine and feces) excreta per day on two consecutive measurements.
# Total radioactivity in blood, plasma, urine, and feces samples, and quick counts in urine and feces samples were determined at the bioanalytical laboratory of PRA (Assen, The Netherlands) using liquid scintillation counting (LSC). Scintillation cocktail Ultima Gold™ (5 mL; Perkin Elmar, Waltham, Massachusetts, USA) was directly spiked into 250 μL plasma and 1000 μL urine samples, respectively, whereas 300 μL aliquots of blood samples were solubilized and decolorized before adding 18 mL of the scintillation cocktail prior to LSC. Feces samples were (quantitatively) homogenized with one or two weight equivalents of water, and an accurately weighted aliquot of approximately 500 mg of the homogenate was dried at 50 °C for at least 3 h. After addition of 100 μL combustion aid, the dried samples were combusted in a sample oxidizer model 307 (Perkin Elmer, Waltham, Massachusetts, USA) using 7 mL CarboSorb® E as an absorber agent for carbon dioxide. At the end of the combustion cycle, the absorber was mixed with 13 mL of the scintillant PermaFluor® E. All scintillation counting using either low-level or normal count modes was carried out in duplicate using a Tri-Carb 3100 TR liquid scintillation analyzer (Perkin Elmer, Waltham, Massachusetts, USA), in compliance with analytical procedures validated by the PRA.
# The maximum plasma concentration (Cmax) and time to reach maximum concentration (tmax) were derived directly from the plasma concentration–time data. Lag time (tlag) was the time prior to the first measurable (non-zero) concentration. The area under the plasma concentration–time curve from 0 to t (last measurable concentration; AUC0–t) was calculated using a mixed log–linear trapezoidal method. Area under the plasma concentration–time curve until the last sampling time (AUCall), which corresponds to AUC0–240 h within the observation period, was used for metabolite calculations. Amounts excreted in urine, feces, and total (urine + feces) were calculated as the sum of amounts (concentration multiplied by volume) for each collection from time 0 to time t. The terminal rate constant (λz) was used to estimate the terminal half-life (t½) (ln 2/λz), and the area under the concentration–time curve from time 0 to infinity (AUC0–∞). Total body clearance (CL) and apparent body clearance (CL/f) were determined by dose/AUC0–∞, and total volume of distribution (Vz) and apparent volume of distribution (Vz/f) were calculated by dose/(AUC0–∞*λz) after IV and oral administration, respectively. Volume of distribution of the central compartment (Vc) was derived by dividing the dose by the initial drug plasma concentration after IV administration. Absolute bioavailability was calculated as F = (AUCoral/doseoral)/(AUCIV/doseIV) × 100. The ratios (%) AUCtepotinib or metabolite/AUCtotal radioactivity were calculated as a percentage of the molar AUCs.
# [2] = Unbound fraction of tepotinib in plasma, ex vivo equilibrium dialysis (part A); assay type: in vitro ADME, human healthy male volunteers; conditions: male, human, 498 mg
# Description: as §1
# Plasma (300 μL) was dialyzed against 100 mM sodium phosphate buffer (pH 7.4) in an orbital shaker at 37 °C for 18 h. The deuterated internal standard [^2H]-MSC2156119A and 100 mM sodium phosphate buffer (pH 7.4) were added to 5 μL of the dialyzed samples and centrifuged. Supernatant (30 μL) was diluted with acetonitrile/water (50 + 50, v/v) and centrifuged, and 5–20 μL aliquots were injected onto an XBridge C18 column (2.1 × 20 mm; 5 μm; Waters, Milford, Massachusetts, USA). Separation was carried out using a mobile phase gradient (eluent A: 5 mM ammonium bicarbonate in water; eluent B: 5 mM ammonium bicarbonate in methanol) with a flow rate of 1.2 mL/min. Mass spectrometric detection of tepotinib and its internal standard was performed as described above. The LLOQ was 0.015 ng/mL in plasma dialysates and 1.00 ng/mL in plasma. Calibration standards between 0.015 and 30.0 ng/mL (plasma dialysates), and between 1.00 ng/mL and 1000 ng/mL (plasma) were calculated by weighted (1/x^2) quadratic regression analysis, respectively.
# [3] = geometric mean of n=6, % of total radioactive dose, oral part A, listed as [^14C]-tepotinib
# [4] = individual subjects 1–6, % of total radioactive dose, single oral 498 mg tepotinib + 2.67 MBq [14C]-tepotinib
# [5] = maximum of n=6, % of total radioactive dose, oral part A
# [6] = median of n=6, % of total radioactive dose, oral part A, listed as [^14C]-tepotinib
# [7] = minimum of n=6, % of total radioactive dose, oral part A
# [8] = range of n=6, % of oral [14C]-tepotinib dose
smiles,measurement,setting,value
CN1CCC(COc2cnc(-c3cccc(Cn4nc(-c5cccc(C#N)c5)ccc4=O)c3)nc2)CC1 [Tepotinib],time up to which radioactivity was observed in urine,"[1]; after dosing, below LLOQ at 312 and 336 h in two participants",up to 360 h
same,time of first radioactivity detected in feces,"[1]; after oral dose, part A",24 to 48 h
same,time within which radioactivity was observed in urine,"[1]; first collection period, part A",≤ 4 h
same,"Ae0–t total, Geometric mean","[1]; geometric mean of n=6, % of total radioactive dose, oral part A",91.90%
same,"Ae0–t feces, Geometric mean",[1]; [3],77.9% and 77.87%
same,"Ae0–t urine, Geometric mean",[1]; [3],13.6% and 13.61%
same,radioactivity not recovered,"[1]; geometric mean, pie chart Fig. 1, oral part A",8.5%
same,Ae0–t feces,[1]; [4],79.48% and 77.92% and 69.40% and 76.89% and 82.53% and 81.76%
same,Ae0–t total (urine + feces),[1]; [4],88.28% and 91.60% and 87.12% and 93.36% and 94.46% and 96.93%
same,Ae0–t urine,[1]; [4],8.80% and 13.68% and 17.72% and 16.47% and 11.93% and 15.17%
same,"Ae0–t feces, Max",[1]; [5],82.53%
same,"Ae0–t total, Max",[1]; [5],96.93%
same,"Ae0–t urine, Max",[1]; [5],17.72%
same,"Ae0–t feces, Median",[1]; [6],78.7%
same,"Ae0–t total, Median",[1]; [6],92.5% and 92.48%
same,"Ae0–t urine, Median",[1]; [6],14.4% and 14.43%
same,"Ae0–t feces, Min",[1]; [7],69.40%
same,"Ae0–t total, Min",[1]; [7],87.12%
same,"Ae0–t urine, Min",[1]; [7],8.80%
same,time up to which excretion of radioactivity in feces was noted,"[1]; post-dose, all participants, part A",up to 360 h
same,"radioactivity excreted in feces, range",[1]; [8],69.4–82.5%
same,"radioactivity excreted in urine, range",[1]; [8],8.8–17.7%
same,[14C]-tepotinib dose recovered in excreta per day,"[1]; two consecutive measurements, days 15 and 16, all subjects",< 1%
same,fraction unbound at 18 h,"[2]; pH 7.4, ex vivo, 4–24 h after oral administration, read-out: highest free fraction observed in individual participants",0.0325
same,fraction unbound at 18 h,"[2]; pH 7.4, ex vivo, 4–24 h after oral administration, read-out: lowest free fraction observed in individual participants",0.0165
same,fraction unbound at 18 h,"[2]; pH 7.4, unbound fraction of tepotinib in plasma, median values, ex vivo, range of medians at 4, 8, 12 and 24 h after oral administration",0.018 to 0.024
